Values joined by “and” are separate entries in the source; they are usually repeats but may differ in a detail not shown here. Equal values may be shown once.
Test: Transfer thermodynamic functions from distribution experiments (real transfer)
Type: physicochemical
Settings: 298.15 K
Procedure: The apparent distribution coefficients were calculated from the molar concentrations of the substance in the phases using the following equation:(10) DCorg/w=C2org/w/C2w/org where DCorg/w is the apparent distribution coefficient, C2org/w and C2w/org are the concentrations (M) of the compound after the distribution in the 1-octanol or n-hexane and water phases, respectively. The apparent distribution coefficients in the mole fraction scale ( DXorg/w ) were calculated by the equation:(11) DXorg/w=X2org/w/X2w/org where X2org/w and X2w/org are the concentrations (mole fract.) of the compound after distribution. The standard Gibbs energy of the transfer ( ΔGtr0) from water to the organic phase was calculated as follows:(12) ΔGtr0=−RT(lnDXorg/w)
The transfer enthalpy ( ΔHtr0) was derived from the temperature dependences of the distribution coefficients by the van’t Hoff approach as:(13) ∂(lnDXorg/w)/∂T=ΔHtr0/RT^2
The standard transfer entropy ( ΔStr0 ) was determined by the equation:(14) ΔGtr0=ΔHtr0−TΔStr0
As follows, additional information on the thermodynamic functions of this parameter (enthalpies and entropies) was obtained from the temperature dependences in order to disclose the transfer (n-hexane → 1-octanol) thermodynamic mechanisms. To this end, the ∆ln DX values (expressed in mole fraction units) characterizing the transfer (n-hexane → 1-octanol) were calculated as ∆ln DX = ln DXoct/w − ln DXhex/w and the respective thermodynamic functions were determined using Equations (12)–(14). The resulting temperature dependences and the contributions of the enthalpy and entropy terms to the free Gibbs energy of the hypothetical and “real” transfers are shown in Figure 5 and Table 6. […] At the same time, the thermodynamic mechanism of the (n-hexane → 1-octanol) transfer differs from the (water → organic solvents) transitions. In particular, the (n-hexane → 1-octanol) transfer process is enthalpy determined (| ΔHtr0 | > | TΔStr0 |) similar to the (water → 1-octanol) one. Nevertheless, TΔStr0 < 0 testifies to the ordering of the system as opposed to water → 1-octanol and water → n-hexane ( TΔStr0 > 0). It can be concluded that the mechanism of the (n-hexane → 1-octanol) transfer is absolutely different from the (water → n-hexane) and partially agrees with the (water → 1-octanol) transition. Importantly, the regularities estimated from the transferring diagram analysis match the results obtained using the Hansen parameters ( Δδt ^water > Δδt ^n-hexane > Δδt ^1-octanol).

[1] = n-hexane → 1-octanol, from Δ lnDX
[2] = water → 1-octanol, real transfer
[3] = water → n-hexane, real transfer

In the case of `CC(O)(CS(=O)(=O)c1ccc(F)cc1)C(=O)Nc1ccc(C#N)c(C(F)(F)F)c1` (stereo not shown) [BCL, bicalutamide], the “DXorg/w (Δ lnDX parameter line)” value (1-octanol/n-hexane (n-hexane → 1-octanol), mole fraction scale) is reported as 425.33, the TΔStr0 [1] is reported as -4.18 kcal/mol and the ΔGtr0 [1] is reported as -3.59 ± 0.096 kcal/mol. The ΔHtr0 [1] was -7.77 ± 0.382 kcal/mol, the ΔStr0 [1] was −58.7 ± 4.1 J⋅mol^−1⋅K^−1 and the TΔStr0 [2] was 1.55 kcal/mol. For the same compound, the ΔGtr0 [2] was -5.14 kcal/mol and -5.14 ± 0.096 kcal/mol, the ΔHtr0 [2] was -3.59 ± 0.048 kcal/mol and the ΔStr0 [2] was 21.8 ± 0.7 J⋅mol^−1⋅K^−1. The TΔStr0 [3] was 5.76 kcal/mol, the ΔGtr0 [3] was -1.55 kcal/mol and -1.55 ± 0.048 kcal/mol and the ΔHtr0 [3] was 4.21 ± 0.43 kcal/mol. The ΔStr0 [3] was 80.8 ± 9.9 J⋅mol^−1⋅K^−1.

From publication PMC8954523 (Pharmaceutics, 2022)
